Test [1] relates to HIV strain containing the Y181C mutation. The test can be described thus: Spread assay, Y181C mutant strain. Conditions: Human immunodeficiency virus 1; spread assay, 10% FBS, Y181C mutant strain; read-out: CIC95. The test is classed as cell-based. The method in brief:
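Acute HIV-1 infection of T-lymphoid cells run in the presence of 10% FBS, […]; potency expressed as CIC95.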

Test [2] concerns mutant strain containing both the K103N and Y181C mutations. The test can be described thus: Spread assay, mutant strain containing both K103N and Y181C. It counts as cell-based, HIV. Particulars: Human immunodeficiency virus 1; analogous spread assay, K103N and Y181C double mutant strain; read-out: CIC95. The procedure: Assays for the inhibition of acute HIV-1 infection of T-lymphoid cells (alternatively referred to herein as the “spread assay”) were conducted in accordance with Vacca, J. P. et al., Proc. Natl. Acad. Sci. USA 1994, 91: 4096. The assays (using 10% FBS) tested for inhibition of wild type HIV-1 and of HIV strains containing the Y181C or K103N mutation. […] (Note that the compound of Example 6 was tested only up to a 833 nM concentration and the CIC95 value was determined to be >833 nM. The compound of Example 78 was not tested in the Y1818C assay.) The compounds of Examples 1 to 119 (including Examples 70A and 70B) had CIC95 values of less than 1000 nanomolar in the assay employing the K103N mutant strain. In an analogous assay employing a mutant strain containing both the K103N and Y181C mutations, the compounds of Examples 70A, 70B and 78-115 had CIC95 values of less than 1000 nanomolar.

This is an account of results in patent publication US20100113421A1, “NON-NUCLEOSIDE REVERSE TRANSCRIPTASE INHIBITORS” (priority 2006, published 2010).

A value given as a limit tells only on which side of the number the result lay.

In the case of `Cc1cc(C)cc(S(=O)(=O)c2c(C(N)=O)[nH]c(C(=O)N(C)Cc3ccnc(Cl)c3F)c2C)c1` [Example 107, N5-[(2-chloro-3-fluoropyridin-4-yl)methyl]-3-[(3,5-dimethylphenyl)sulfonyl]-N5,4-dimethyl-1H-pyrrole-2,5-dicarboxamide], the IC95 in test [1] was less than 8 µM; in test [2] it was less than 1 µM.
`CC(C)c1c(C(=O)N(C)Cc2ccnc(N)c2F)[nH]c(C(N)=O)c1S(=O)(=O)c1ccccc1` [Example 115, N2-[(2-amino-3-fluoropyridin-4-yl)methyl]-3-isopropyl-N2-methyl-4-(phenylsulfonyl)-1H-pyrrole-2,5-dicarboxamide]: the IC95 was less than 8 µM in test [1] and less than 1 µM in test [2].
Turning to `Cc1cc(C)cc(S(=O)(=O)c2c(C(N)=O)[nH]c(C(=O)N3CCCc4sc(S(C)(=O)=O)cc4C3)c2C)c1` [Example 98, 3-[(3,5-Dimethylphenyl)sulfonyl]-4-methyl-5-[(2-(methylsulfonyl)-4,6,7,8-tetrahydro-5H-thieno[3,2-c]azepin-5-yl)carbonyl]-1H-pyrrole-2-carboxamide], the IC95 in test [1] was less than 8 µM; in test [2], less than 1 µM.
For `Cc1c(C(=O)N2CCCc3ccc(O)cc3C2)[nH]c(C(N)=O)c1S(=O)(=O)c1cc(Cl)cc(Cl)c1` [Example 82, 3-[(3,5-dichlorophenyl)sulfonyl]-4-methyl-5-(8-hydroxy-1,3,4,5-tetrahydro-2H-2-benzazepin-2-ylcarbonyl)-1H-pyrrole-2-carboxamide], the IC95 in test [1] is less than 8 µM; in test [2], less than 1 µM.
For the compound `Cc1cc(C)cc(S(=O)(=O)c2c(C(N)=O)[nH]c(C(=O)N(C)Cc3cc(N)ncc3F)c2C)c1` [Example 103, N5-[(2-amino-5-fluoropyridin-4-yl)methyl]-3-[(3,5-dimethylphenyl)sulfonyl]-N5,4-dimethyl-1H-pyrrole-2,5-dicarboxamide], the IC95 in test [1] was less than 8 µM; in test [2], less than 1 µM.
For `Cc1cc(C)cc(S(=O)(=O)c2c(C(N)=O)[nH]c(C(=O)N(C)Cc3ccncc3Cl)c2C)c1` [Example 105, N5-[(3-chloropyridin-4-yl)methyl]-3-[(3,5-dimethylphenyl)sulfonyl]-N5,4-dimethyl-1H-pyrrole-2,5-dicarboxamide], the values for the IC95 in test [1] and in test [2] were less than 8 µM and less than 1 µM, respectively.
With `Cc1cc(C)cc(S(=O)(=O)c2c(C(N)=O)[nH]c(C(=O)N3CCCc4ccc(O)cc4C3)c2C)c1` [Example 90, 3-[(3,5-dimethylphenyl)sulfonyl]-4-methyl-5-(8-hydroxy-1,3,4,5-tetrahydro-2H-2-benzazepin-2-ylcarbonyl)-1H-pyrrole-2-carboxamide], the IC95 in test [1] is less than 8 µM; in test [2] it was less than 1 µM.
Taken in the same sequence, the figures for `Cc1cc(C)cc(S(=O)(=O)c2c(C(N)=O)[nH]c(C(=O)N(C)Cc3ccncc3F)c2C)c1` [Example 109, 3-[(3,5-dimethylphenyl)sulfonyl]-N5-[(3-fluoropyridin-4-yl)methyl]-N5,4-dimethyl-1H-pyrrole-2,5-dicarboxamide] were less than 8 µM and less than 1 µM.
For the compound `COc1ccc2c(c1)CN(C(=O)c1[nH]c(C(N)=O)c(S(=O)(=O)c3cc(Cl)cc(Cl)c3)c1C)CCC2` [Example 81, 3-[(3,5-dichlorophenyl)sulfonyl]-4-methyl-5-(8-methoxy-1,3,4,5-tetrahydro-2H-2-benzazepin-2-ylcarbonyl)-1H-pyrrole-2-carboxamide], the results for the IC95 in test [1] and in test [2] were less than 8 µM and less than 1 µM, respectively.
Taken in the same sequence, the figures for `Cc1c(C(=O)N2CCCc3sc(S(C)(=O)=O)cc3C2)[nH]c(C(N)=O)c1S(=O)(=O)c1cc(Cl)cc(Cl)c1` [Example 97] were less than 8 µM and less than 1 µM.
For the compound `Cc1c(C(=O)N2CCCc3sc(Cl)cc3C2)[nH]c(C(N)=O)c1S(=O)(=O)c1cc(Cl)cc(Cl)c1` [Example 96, 3-[(3,5-Dichlorophenyl)sulfonyl]-4-methyl-5-[(2-chloro-4,6,7,8-tetrahydro-5H-thieno[3,2-c]azepin-5-yl)carbonyl]-1H-pyrrole-2-carboxamide], the IC95 in test [1] was less than 8 µM; in test [2] it was less than 1 µM.
The matching figures for `COc1ccc2c(c1)CCCN(C(=O)c1[nH]c(C(N)=O)c(S(=O)(=O)c3cc(Cl)cc(Cl)c3)c1C)C2` [Example 85, 3-[(3,5-dichlorophenyl)sulfonyl]-4-methyl-5-(7-methoxy-1,3,4,5-tetrahydro-2H-2-benzazepin-2-ylcarbonyl)-1H-pyrrole-2-carboxamide]: less than 8 µM and less than 1 µM.
Taken in the same sequence, the figures for `CC(C)c1c(C(=O)N(C)Cc2ccnc(Cl)c2F)[nH]c(C(N)=O)c1S(=O)(=O)c1ccccc1` [Example 108, N2-[(2-chloro-3-fluoropyridin-4-yl)methyl]-3-isopropyl-N2-methyl-4-(phenylsulfonyl)-1H-pyrrole-2,5-dicarboxamide] were less than 8 µM and less than 1 µM.
The matching figures for `Cc1cc(C)cc(S(=O)(=O)c2c(C(N)=O)[nH]c(C(=O)N3CCCc4sccc4C3)c2C)c1` [Example 80, 3-[(3,5-Dimethylphenyl)sulfonyl]-4-methyl-5-(4,6,7,8-tetrahydro-5H-thieno[3,2-c]azepin-5-ylcarbonyl)-1H-pyrrole-2-carboxamide]: less than 8 µM and less than 1 µM.
For `CC(C)c1c(C(=O)N(C)Cc2cc(N)ncc2F)[nH]c(C(N)=O)c1S(=O)(=O)c1ccccc1` [Example 104], the IC95 was less than 8 µM in test [1] and less than 1 µM in test [2].
With `Cc1c(C(=O)N2CCCc3sccc3C2)[nH]c(C(N)=O)c1S(=O)(=O)c1cc(Cl)cc(Cl)c1` [Example 84, 3-[(3,5-dichlorophenyl)sulfonyl]-4-methyl-5-(4,6,7,8-tetrahydro-5H-thieno[3,2-c]azepin-5-ylcarbonyl)-1H-pyrrole-2-carboxamide], the IC95 is less than 8 µM in test [1] and less than 1 µM in test [2].
`Cc1c(C(=O)N2CCCc3ccc(O)cc3C2)[nH]c(C(N)=O)c1S(=O)(=O)c1cccc(F)c1` [Example 94, 3-[(3-fluorophenyl)sulfonyl]-4-methyl-5-(8-hydroxy-1,3,4,5-tetrahydro-2H-2-benzazepin-2-ylcarbonyl)-1H-pyrrole-2-carboxamide]: the figures for the IC95 in test [1] and in test [2] were less than 8 µM and less than 1 µM, respectively.
